Data reported in ChEMBL document CHEMBL3352739, “Comparative in vivo evaluation of polyalkoxy substituted 4H-chromenes and oxa-podophyllotoxins as microtubule destabilizing agents in the phenotypic sea urchin embryo assay” (2014).

Assays:
[1] = Growth inhibition of human HCC2998 cells after 48 hrs by sulforhodamine B assay; format: functional; conditions: HCC 2998, 48 h
[2] = Growth inhibition of human OVCAR5 cells after 48 hrs by sulforhodamine B assay; format: functional; conditions: OVCAR-5, 48 h
U-251 = test: Growth inhibition of human U251 cells after 48 hrs by sulforhodamine B assay; format: functional; conditions: U-251, 48 h
HOP-62 = test: Growth inhibition of human HOP62 cells after 48 hrs by sulforhodamine B assay; format: functional; conditions: HOP-62, 48 h
[3] = Growth inhibition of human COLO205 cells after 48 hrs by sulforhodamine B assay; format: functional; conditions: COLO 205, 48 h
[4] = Growth inhibition of human OVCAR3 cells after 48 hrs by sulforhodamine B assay; format: functional; conditions: OVCAR-3, 48 h
[5] = Growth inhibition of human SF539 cells after 48 hrs by sulforhodamine B assay; format: functional; conditions: SF-539, 48 h
[6] = Cytotoxicity against human NCI60 cells; format: functional
SF-268 = test: Growth inhibition of human SF268 cells after 48 hrs by sulforhodamine B assay; format: functional; conditions: SF-268, 48 h
SR = test: Growth inhibition of human SR cells after 48 hrs by sulforhodamine B assay; format: functional
MDA-MB-231 = test: Growth inhibition of human MDA-MB-231 cells after 48 hrs by sulforhodamine B assay; format: functional; conditions: MDA-MB-231, 48 h
786-0 = test: Growth inhibition of human 786-0 cells after 48 hrs by sulforhodamine B assay; format: functional; conditions: 786-0, 48 h
[7] = Growth inhibition of human RPMI8226 cells after 48 hrs by sulforhodamine B assay; format: functional; conditions: RPMI-8226, 48 h
M14 = test: Growth inhibition of human M14 cells after 48 hrs by sulforhodamine B assay; format: functional; conditions: M14, 48 h
[8] = Growth inhibition of human BT549 cells after 48 hrs by sulforhodamine B assay; format: functional; conditions: BT-549, 48 h
[9] = Growth inhibition of human OVCAR8 cells after 48 hrs by sulforhodamine B assay; format: functional; conditions: OVCAR-8, 48 h
A498 = test: Growth inhibition of human A498 cells after 48 hrs by sulforhodamine B assay; format: functional; conditions: A498, 48 h
NCI-H460 = test: Growth inhibition of human NCI-H460 cells after 48 hrs by sulforhodamine B assay; format: functional; conditions: NCI-H460, 48 h
TK-10 = test: Growth inhibition of human TK10 cells after 48 hrs by sulforhodamine B assay; format: functional; conditions: TK-10, 48 h
IGROV-1 = test: Growth inhibition of human IGROV1 cells after 48 hrs by sulforhodamine B assay; format: functional; conditions: IGROV-1, 48 h
MCF7 = test: Growth inhibition of human MCF7 cells after 48 hrs by sulforhodamine B assay; format: functional; conditions: MCF7, 48 h
[10] = Growth inhibition of human MOLT4 cells after 48 hrs by sulforhodamine B assay; format: functional; conditions: MOLT-4, 48 h
[11] = Growth inhibition of human Hs 578T cells after 48 hrs by sulforhodamine B assay; format: functional
SK-OV-3 = test: Growth inhibition of human SKOV3 cells after 48 hrs by sulforhodamine B assay; format: functional; conditions: SK-OV-3, 48 h
HT-29 = test: Growth inhibition of human HT-29 cells after 48 hrs by sulforhodamine B assay; format: functional; conditions: HT-29, 48 h
A549 = test: Growth inhibition of human A549/ATCC cells after 48 hrs by sulforhodamine B assay; format: functional; conditions: A549, 48 h
SW-620 = test: Growth inhibition of human SW620 cells after 48 hrs by sulforhodamine B assay; format: functional; conditions: SW-620, 48 h
[12] = Growth inhibition of human LOXIMVI cells after 48 hrs by sulforhodamine B assay; format: functional; conditions: LOX IMVI
Paracentrotus lividus [13] = test: Antimitotic microtubule destabilizing activity in Paracentrotus lividus L embryos assessed as induction of embryo spinning
Paracentrotus lividus [14] = test: Antimitotic microtubule destabilizing activity in Paracentrotus lividus L embryos assessed as induction of cleavage alteration
SK-MEL-28 = test: Growth inhibition of human SK-MEL-28 cells after 48 hrs by sulforhodamine B assay; format: functional; conditions: SK-MEL-28, 48 h
[15] = Growth inhibition of human OVCAR4 cells after 48 hrs by sulforhodamine B assay; format: functional; conditions: OVCAR-4, 48 h
SNB-19 = test: Growth inhibition of human SNB19 cells after 48 hrs by sulforhodamine B assay; format: functional; conditions: SNB-19, 48 h
[16] = Growth inhibition of human EKVX cells after 48 hrs by sulforhodamine B assay; format: functional
DU-145 = test: Growth inhibition of human DU145 cells after 48 hrs by sulforhodamine B assay; format: functional; conditions: DU-145, 48 h
Paracentrotus lividus [17] = test: Antimitotic microtubule destabilizing activity in Paracentrotus lividus L embryos assessed as induction of cleavage arrest
[18] = Growth inhibition of human HCT116 cells after 48 hrs by sulforhodamine B assay; format: functional; conditions: HCT-116, 48 h
NCI-H522 = test: Growth inhibition of human NCI-H522 cells after 48 hrs by sulforhodamine B assay; format: functional; conditions: NCI-H522, 48 h
T47D = test: Growth inhibition of human T47D cells after 48 hrs by sulforhodamine B assay; format: functional
SNB-75 = test: Growth inhibition of human SNB75 cells after 48 hrs by sulforhodamine B assay; format: functional; conditions: SNB-75, 48 h
CAKI-1 = test: Growth inhibition of human CAKI-1 cells after 48 hrs by sulforhodamine B assay; format: functional; conditions: CAKI-1, 48 h
[19] = Growth inhibition of human NCI-ADR-RES cells after 48 hrs by sulforhodamine B assay; format: functional
Malme-3M = test: Growth inhibition of human MALME-3M cells after 48 hrs by sulforhodamine B assay; format: functional
SK-MEL-5 = test: Growth inhibition of human SK-MEL-5 cells after 48 hrs by sulforhodamine B assay; format: functional; conditions: SK-MEL-5, 48 h
[20] = Growth inhibition of human UACC257 cells after 48 hrs by sulforhodamine B assay; format: functional; conditions: UACC-257, 48 h
NCI-H322M = test: Growth inhibition of human NCI-H322M cells after 48 hrs by sulforhodamine B assay; format: functional
[21] = Growth inhibition of human UACC62 cells after 48 hrs by sulforhodamine B assay; format: functional; conditions: UACC-62, 48 h
[22] = Growth inhibition of human SF295 cells after 48 hrs by sulforhodamine B assay; format: functional; conditions: SF-295, 48 h
KM12 = test: Growth inhibition of human KM12 cells after 48 hrs by sulforhodamine B assay; format: functional; conditions: KM12, 48 h
[23] = Growth inhibition of human HCT15 cells after 48 hrs by sulforhodamine B assay; format: functional; conditions: HCT-15, 48 h
MDA-MB-468 = test: Growth inhibition of human MDA-MB-468 cells after 48 hrs by sulforhodamine B assay; format: functional; conditions: MDA-MB-468, 48 h
NCI-H23 = test: Growth inhibition of human NCI-H23 cells after 48 hrs by sulforhodamine B assay; format: functional; conditions: NCI-H23, 48 h
[24] = Growth inhibition of human UO31 cells after 48 hrs by sulforhodamine B assay; format: functional; conditions: UO-31, 48 h
[25] = Growth inhibition of human RXF393 cells after 48 hrs by sulforhodamine B assay; format: functional; conditions: RXF 393, 48 h
[26] = Growth inhibition of human PC3 cells after 48 hrs by sulforhodamine B assay; format: functional; conditions: PC-3, 48 h
NCI-H226 = test: Growth inhibition of human NCI-H226 cells after 48 hrs by sulforhodamine B assay; format: functional; conditions: NCI-H226, 48 h
SN12C = test: Growth inhibition of human SN12C cells after 48 hrs by sulforhodamine B assay; format: functional
HL-60(TB) = test: Growth inhibition of human HL-60(TB) cells after 48 hrs by sulforhodamine B assay; format: functional; conditions: HL-60, 48 h
SK-MEL-2 = test: Growth inhibition of human SK-MEL-2 cells after 48 hrs by sulforhodamine B assay; format: functional; conditions: SK-MEL-2, 48 h
MDA-MB-435 = test: Growth inhibition of human MDA-MB-435 cells after 48 hrs by sulforhodamine B assay; format: functional; conditions: MDA-MB-435, 48 h
CCRF-CEM = test: Growth inhibition of human CCRF-CEM cells after 48 hrs by sulforhodamine B assay; format: functional
[27] = Growth inhibition of human H1299 cells after 48 hrs by sulforhodamine B assay; format: functional; conditions: NCI-H1299, 48 h
ZR-75-1 = test: Growth inhibition of human ZR-75-1 cells after 48 hrs by sulforhodamine B assay; format: functional; conditions: ZR-75-1, 48 h

## COc1cccc(C2C(C#N)=C(N)Oc3cc4c(cc32)OCO4)c1 (configuration not stated)
[1]
  GI50: 101 nM
[2]
  GI50: 447 nM
U-251
  GI50: 46.2 nM
HOP-62
  GI50: 43.2 nM
[3]
  GI50: 43.2 nM
[4]
  GI50: 25.6 nM
[5]
  GI50: 34.4 nM
[6]
  GI50: 65 nM
SF-268
  GI50: 54.1 nM
SR
  GI50: 30.2 nM
MDA-MB-231
  GI50: 2170 nM
786-0
  GI50: 58.7 nM
[7]
  GI50: 105 nM
M14
  GI50: 54.9 nM
[8]
  GI50: 87.4 nM
[9]
  GI50: 97.1 nM
A498
  GI50: 29.1 nM
NCI-H460
  GI50: 44 nM
TK-10
  GI50: 6010 nM
IGROV-1
  GI50: 97.3 nM
MCF7
  GI50: 36.4 nM
[10]
  GI50: 6.17 nM
[11]
  GI50: 31.6 nM
SK-OV-3
  GI50: 36.2 nM
HT-29
  GI50: 46.2 nM
A549
  GI50: 62.5 nM
SW-620
  GI50: 36.5 nM
[12]
  GI50: 46 nM
Paracentrotus lividus [13]
  EC: 0.2 µM
Paracentrotus lividus [14]
  EC: 0.005 µM
SK-MEL-28
  GI50: 70 nM
[15]
  GI50: 2510 nM
SNB-19
  GI50: 54.3 nM
[16]
  GI50: 259 nM
DU-145
  GI50: 84.5 nM
Paracentrotus lividus [17]
  EC: 0.05 µM
[18]
  GI50: 49.8 nM
NCI-H522
  GI50: 23.1 nM
T47D
  GI50: 50.2 nM
SNB-75
  GI50: 23.8 nM
CAKI-1
  GI50: 40.9 nM
[19]
  GI50: 30.2 nM
Malme-3M
  GI50: 50.1 nM
SK-MEL-5
  GI50: 37.8 nM
[20]
  GI50: 47.1 nM
NCI-H322M
  GI50: 2110 nM
[21]
  GI50: 43.4 nM
[22]
  GI50: 34.4 nM
KM12
  GI50: 36.5 nM
[23]
  GI50: 44.7 nM
MDA-MB-468
  GI50: 25.4 nM
NCI-H23
  GI50: 97.7 nM
[24]
  GI50: 58.9 nM
[25]
  GI50: 29 nM
[26]
  GI50: 65.6 nM
NCI-H226
  GI50: 45.5 nM
SN12C
  GI50: 79.2 nM
HL-60(TB)
  GI50: 24.2 nM
SK-MEL-2
  GI50: 30.1 nM
MDA-MB-435
  GI50: 20.3 nM
CCRF-CEM
  GI50: 36 nM

## COc1cc(OC)cc(C2C(C#N)=C(N)Oc3cc(OC)ccc32)c1 (configuration not stated)
[27]
  GI50: 32 nM
Paracentrotus lividus [13]
  EC: 0.02 µM
Paracentrotus lividus [14]
  EC: 0.0005 µM
Paracentrotus lividus [17]
  EC: 0.005 µM
T47D
  GI50: 14 nM
ZR-75-1
  GI50: 9 nM
